Laboratory results from patent US20240059677A1, “SUBSTITUTED PYRIMIDINE DERIVATIVES AS NICOTINIC ACETYLCHOLINESTERASE RECEPTOR ALPHA 6 MODULATOR” (priority 2020, published 2024).

These compounds were tested against T1, human nAChRα6-α3 chimera, in addition to β2 and β3^V273S subunits (Homo sapiens, UniProt P32297+Q15825) (assay: fluorescence-based calcium assay: inhibition of nicotine stimulated nAChRα6 activity (FLIPR)). Conditions: HEK cell line stably expressing the receptor; 10 min pre-incubation, nicotine EC80; 10-point curve, duplicate wells; read-out: IC50.
T1 construct: expressed in transfected cells
T1 sequence (Q05901 25-458 V273S): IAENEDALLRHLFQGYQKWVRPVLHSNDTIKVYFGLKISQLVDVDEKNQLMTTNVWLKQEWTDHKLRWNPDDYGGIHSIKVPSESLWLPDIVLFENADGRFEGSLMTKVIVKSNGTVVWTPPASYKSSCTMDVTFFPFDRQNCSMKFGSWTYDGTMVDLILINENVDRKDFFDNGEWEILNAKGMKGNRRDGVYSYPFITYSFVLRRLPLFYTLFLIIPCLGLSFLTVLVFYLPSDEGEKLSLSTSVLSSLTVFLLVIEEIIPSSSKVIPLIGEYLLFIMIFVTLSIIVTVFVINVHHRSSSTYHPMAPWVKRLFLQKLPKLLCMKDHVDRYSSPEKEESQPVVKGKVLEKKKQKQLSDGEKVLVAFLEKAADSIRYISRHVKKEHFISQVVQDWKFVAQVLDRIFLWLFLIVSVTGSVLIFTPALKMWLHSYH
T1 sequence (P17787 26-502, stated change not applied, further chain): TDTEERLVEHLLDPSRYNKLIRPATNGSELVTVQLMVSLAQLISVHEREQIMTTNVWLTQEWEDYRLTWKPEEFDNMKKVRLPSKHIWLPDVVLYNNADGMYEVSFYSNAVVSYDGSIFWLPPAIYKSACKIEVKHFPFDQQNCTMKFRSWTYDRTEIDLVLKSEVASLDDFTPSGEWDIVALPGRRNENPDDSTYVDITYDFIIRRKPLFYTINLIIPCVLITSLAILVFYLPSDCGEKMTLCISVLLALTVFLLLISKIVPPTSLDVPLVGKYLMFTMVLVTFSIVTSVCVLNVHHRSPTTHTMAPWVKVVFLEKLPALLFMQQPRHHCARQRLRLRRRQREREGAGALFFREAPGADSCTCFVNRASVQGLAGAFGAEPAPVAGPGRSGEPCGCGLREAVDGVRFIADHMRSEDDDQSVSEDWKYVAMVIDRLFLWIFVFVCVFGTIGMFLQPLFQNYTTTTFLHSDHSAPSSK
T1 sequence (Q15825+P32297 fused with the stated changes): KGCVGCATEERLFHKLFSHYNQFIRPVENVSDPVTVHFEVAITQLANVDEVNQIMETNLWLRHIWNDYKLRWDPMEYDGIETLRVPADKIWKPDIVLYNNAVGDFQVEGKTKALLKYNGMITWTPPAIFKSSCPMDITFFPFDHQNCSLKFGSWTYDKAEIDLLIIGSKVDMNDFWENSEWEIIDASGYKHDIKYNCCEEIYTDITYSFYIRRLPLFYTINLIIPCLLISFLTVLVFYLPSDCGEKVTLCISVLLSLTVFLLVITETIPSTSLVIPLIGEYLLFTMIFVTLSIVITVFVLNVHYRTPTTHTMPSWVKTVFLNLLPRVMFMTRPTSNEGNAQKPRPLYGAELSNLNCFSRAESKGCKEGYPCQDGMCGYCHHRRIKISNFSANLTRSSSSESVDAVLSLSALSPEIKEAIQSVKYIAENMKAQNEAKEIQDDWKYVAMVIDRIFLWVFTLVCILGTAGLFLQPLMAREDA
Outline: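 HEK cells stably expressing the human α6-α3 chimera with β2 and β3^V273S were loaded with calcium dye at 30° C. Compounds were pre-incubated for 10 min before nicotine at EC80, and the fluorescence change was read on a FLIPR. Ten-point half-log concentration-response, duplicate wells.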
In the case of `Cc1nc(NCCC2CCCN2C)ncc1-c1ccccc1` (stereo not drawn) [Example 1, 4-methyl-N-(2-(1-methylpyrrolidin-2-yl)ethyl)-5-phenylpyrimidin-2-amine], the IC50 is reported as 0.048 µM. Compound `CN1CCCC1CCNc1ncc(-c2ccccc2)cn1` (stereo not drawn) [Example 2, N-(2-(1-methylpyrrolidin-2-yl)ethyl)-5-phenylpyrimidin-2-amine] has an IC50 of 0.302 µM. Compound `CN1CCCC1CCNc1ncc(-c2ccc(F)cc2)cn1` (stereo not drawn) [Example 3, 5-(4-fluorophenyl)-N-(2-(1-methylpyrrolidin-2-yl)ethyl)pyrimidin-2-amine] has an IC50 of 0.331 µM. `CN1CCCC(CNc2ncc(-c3ccc(F)cc3)cn2)C1` (stereo not drawn) [Example 4, 5-(4-fluorophenyl)-N-((1-methylpiperidin-3-yl)methyl)pyrimidin-2-amine] was tested, and the IC50 was 0.211 µM. In the case of `CN1CCCC(Nc2ncc(-c3ccc(F)cc3)cn2)C1` (stereo not drawn) [Example 5, 5-(4-fluorophenyl)-N-(1-methylpiperidin-3-yl)pyrimidin-2-amine], the IC50 is reported as 0.635 µM. Work on `CC(C)N1CCCC(Nc2ncc(-c3ccc(F)cc3)cn2)C1` (stereo not drawn) [Example 6, 5-(4-fluorophenyl)-N-(1-isopropylpiperidin-3-yl)pyrimidin-2-amine] yielded an IC50 of 0.123 µM. With `CN(C)C1CCCC(Nc2ncc(-c3ccc(F)cc3)cn2)C1` (stereo not drawn) [Example 7, N^1-(5-(4-fluorophenyl)pyrimidin-2-yl)-N^3,N^3-dimethylcyclohexane-1,3-diamine] the IC50 was 0.59 µM. In the case of `CN1CCCCC1CNc1ncc(-c2ccc(F)cc2)cn1` (stereo not drawn) [Example 8, 5-(4-fluorophenyl)-N-((1-methylpiperidin-2-yl)methyl)pyrimidin-2-amine], the IC50 is reported as 0.286 µM. In the case of `Cc1nc(NC2CCCN(C(C)C)C2)ncc1-c1ccc(F)cc1` (stereo not drawn) [Example 9, 5-(4-fluorophenyl)-N-(1-isopropylpiperidin-3-yl)-4-methyl-pyrimidin-2-amine], the IC50 is reported as 0.264 µM. `Cc1nc(NCC2(N(C)C)CCCC2)ncc1-c1ccc(F)cc1F` [Example 11, 5-(2,4-difluorophenyl)-N-((1-(dimethylamino)cyclopentyl)methyl)-4-methyl-pyrimidin-2-amine] showed an IC50 of 0.246 µM. `Cc1nc(NC2CC3CCC(C2)N3C)ncc1-c1ccc(F)cc1F` (stereo not drawn) [Example 12, N-(5-(2,4-difluorophenyl)-4-methyl-pyrimidin-2-yl)-8-methyl-8-azabicyclo[3.2.1]octan-3-amine] showed an IC50 of 0.108 µM. With `Cc1nc(NCC2CCN(C)C2)ncc1-c1ccc(F)cc1F` (stereo not drawn) [Example 13, 5-(2,4-difluorophenyl)-4-methyl-N-((1-methylpyrrolidin-3-yl)methyl) pyrimidin-2-amine] the IC50 was 0.05 µM. With `Cc1nc(NCCC2CCCN2C)ncc1-c1ccc(F)cc1F` (stereo not drawn) [Example 14, 5-(2,4-difluorophenyl)-4-methyl-N-(2-(1-methylpyrrolidin-2-yl)ethyl) pyrimidin-2-amine] the IC50 was 0.042 µM. `Cc1nc(NCC2CCCN2C)nnc1-c1ccc(F)cc1F` (stereo not drawn) [Example 15, 6-(2,4-difluorophenyl)-5-methyl-N-((1-methylpyrrolidin-2-yl)methyl)-1,2,4-triazin-3-amine] gave an IC50 of 1.94 µM. With `COc1ccc(-c2cnc(NCCC3CCCN3C)nc2C)c(F)c1` (stereo not drawn) [Example 16, 5-(2-fluoro-4-methoxyphenyl)-4-methyl-N-(2-(1-methylpyrrolidin-2-yl)ethyl)pyrimidin-2-amine] the IC50 was 0.075 µM. With `COc1ccc(-c2cnc(NCC3CCCCN3C)nc2C)c(F)c1` (stereo not drawn) [Example 17, 5-(2-fluoro-4-methoxyphenyl)-4-methyl-N-((1-methylpiperidin-2-yl)methyl) pyrimidin-2-amine] the IC50 was 0.02 µM. `CN1CCCC1CNc1ncc(-c2ccc(F)cc2F)c(C#N)n1` (stereo not drawn) [Example 19, 5-(2,4-difluorophenyl)-2-(((1-methylpyrrolidin-2-yl)methyl)amino) pyrimidine-4-carbonitrile] showed an IC50 of 0.216 µM. `Cc1nc(NCC2CCCCN2C)nnc1-c1ccc(F)cc1F` (stereo not drawn) [Example 20, 6-(2,4-difluorophenyl)-5-methyl-N-((1-methylpiperidin-2-yl)methyl)-1,2,4-triazin-3-amine] gave an IC50 of 0.49 µM. For `Cc1nc(NCCC2CCCN2C)nnc1-c1ccc(F)cc1F` (stereo not drawn) [Example 21, 6-(2,4-difluorophenyl)-5-methyl-N-(2-(1-methylpyrrolidin-2-yl)ethyl)-1,2,4-triazin-3-amine], the IC50 was 0.599 µM. For `Cc1nc(NC2CCN(C(C)C)C2)ncc1-c1ccc(F)cc1F` (stereo not drawn) [Example 22, 5-(2,4-difluorophenyl)-N-(1-isopropylpyrrolidin-3-yl)-4-methyl-pyrimidin-2-amine], the IC50 was 0.05 µM. Work on `COc1ccc(-c2nnc(NCCC3CCCN3C)nc2C)c(F)c1` (stereo not drawn) [Example 23, 6-(2-fluoro-4-methoxyphenyl)-5-methyl-N-(2-(1-methylpyrrolidin-2-yl)ethyl)-1,2,4-triazin-3-amine] yielded an IC50 of 0.233 µM. With `Cc1nc(NC[C@@H]2CCCN2C)ncc1-c1ccc(F)cc1F` [Example 24a, (S)-5-(2,4-difluorophenyl)-4-methyl-N-((1-methylpyrrolidin-2-yl)methyl) pyrimidin-2-amine] the IC50 was 0.062 µM. For `COc1ccc(-c2cnc(NCC3CCCCN3C)nc2C#N)c(F)c1` (stereo not drawn) [Example 25, 5-(2-fluoro-4-methoxyphenyl)-2-(((1-methylpiperidin-2-yl)methyl)amino) pyrimidine-4-carbonitrile], the IC50 was 0.034 µM. In the case of `COc1ccc(-c2nnc(NCC3CCCCN3C)nc2C)c(F)c1` (stereo not drawn) [Example 26, 6-(2-fluoro-4-methoxyphenyl)-5-methyl-N-((1-methylpiperidin-2-yl)methyl)-1,2,4-triazin-3-amine], the IC50 is reported as 0.156 µM. Work on `COc1ccc(-c2cnc(NCCC3CCCN3C)nc2C#N)c(F)c1` (stereo not drawn) [Example 27, 5-(2-fluoro-4-methoxyphenyl)-2-((2-(1-methylpyrrolidin-2-yl)ethyl)amino) pyrimidine-4-carbonitrile] yielded an IC50 of 0.056 µM. `Cc1nc(NC2CCN(C)C2)ncc1-c1ccc(F)cc1F` (stereo not drawn) [Example 29, 5-(2,4-difluorophenyl)-4-methyl-N-(1-methylpyrrolidin-3-yl)pyrimidin-2-amine] gave an IC50 of 0.095 µM. For `COc1ccc(-c2cnc(NCC3CCCN(C)C3)nc2C)c(F)c1` (stereo not drawn) [Example 30, 5-(2-fluoro-4-methoxyphenyl)-4-methyl-N-((1-methylpiperidin-3-yl)methyl) pyrimidin-2-amine], the IC50 was 0.082 µM. Compound `COc1ccc(-c2cnc(NCC3CCN(C)C3)nc2C#N)c(F)c1` (stereo not drawn) [Example 31, 5-(2-fluoro-4-methoxyphenyl)-2-(((1-methylpyrrolidin-3-yl)methyl)amino) pyrimidine-4-carbonitrile] has an IC50 of 0.082 µM. For `COc1ccc(-c2cnc(NCC3COCCN3C)nc2C)c(F)c1` (stereo not drawn) [Example 32, 5-(2-fluoro-4-methoxyphenyl)-4-methyl-N-((4-methylmorpholin-3-yl)methyl)pyrimidin-2-amine], the IC50 was 0.099 µM. `COc1ccc(F)c(-c2cnc(NCC3CCCCN3C)nc2C)c1` (stereo not drawn) [Example 33, 5-(2-fluoro-5-methoxyphenyl)-4-methyl-N-((1-methylpiperidin-2-yl)methyl) pyrimidin-2-amine] gave an IC50 of 0.045 µM. `COc1ccc(F)c(-c2cnc(NCC3CCCN(C)C3)nc2C)c1` (stereo not drawn) [Example 34, 5-(2-fluoro-5-methoxyphenyl)-4-methyl-N-((1-methylpiperidin-3-yl)methyl) pyrimidin-2-amine] was tested, and the IC50 was 0.13 µM. `COc1ccc(-c2cnc(NCC3CN(C)CCO3)nc2C)c(F)c1` (stereo not drawn) [Example 36, 5-(2-fluoro-4-methoxyphenyl)-4-methyl-N-((4-methylmorpholin-2-yl)methyl)pyrimidin-2-amine] was tested, and the IC50 was 0.14 µM. For `COc1ccc(-c2cnc(NCC3CCN(C)C3)nc2C2CC2)c(F)c1` (stereo not drawn) [Example 37, 4-cyclopropyl-5-(2-fluoro-4-methoxyphenyl)-N-((1-methylpyrrolidin-3-yl)methyl)pyrimidin-2-amine], the IC50 was 0.103 µM. In the case of `COc1ccc(-c2cnc(NC3CCN(C)CC3)nc2C)c(F)c1` [Example 40, 5-(2-fluoro-4-methoxyphenyl)-4-methyl-N-(1-methylpiperidin-4-yl) pyrimidin-2-amine], the IC50 is reported as 0.068 µM. `COc1ccc(-c2cnc(NC3CCN(C(C)C)CC3)nc2C)c(F)c1` [Example 41, 5-(2-fluoro-4-methoxyphenyl)-N-(1-isopropylpiperidin-4-yl)-4-methyl-pyrimidin-2-amine] was tested, and the IC50 was 0.081 µM. In the case of `Cc1nc(NCc2cccnc2)ncc1-c1ccc(F)cc1F` [Example 42, 5-(2,4-difluorophenyl)-4-methyl-N-(pyridin-3-ylmethyl)pyrimidin-2-amine], the IC50 is reported as 1.2 µM. For `COc1ccc(-c2cnc(NC3CCC(N(C)C)C3)nc2C(F)(F)F)c(F)c1` (stereo not drawn) [Example 43, N^1-(5-(2-fluoro-4-methoxyphenyl)-4-(trifluoromethyl)pyrimidin-2-yl)-N^3,N^3-dimethylcyclopentane-1,3-diamine], the IC50 was 0.178 µM. Compound `COc1ccc(-c2cnc(NC3CCOCC3)nc2C)c(F)c1` [Example 45, 5-(2-fluoro-4-methoxyphenyl)-4-methyl-N-(tetrahydro-2H-pyran-4-yl) pyrimidin-2-amine] has an IC50 of 1.31 µM. `COc1ccc(-c2cnc(NC3CCCOC3)nc2C)c(F)c1` (stereo not drawn) [Example 46, 5-(2-fluoro-4-methoxyphenyl)-4-methyl-N-(tetrahydro-2H-pyran-3-yl) pyrimidin-2-amine] showed an IC50 of 2.18 µM. In the case of `COc1ccc(-c2cnc(NCC3CCCO3)nc2C)c(Cl)c1` (stereo not drawn) [Example 47, 5-(2-chloro-4-methoxyphenyl)-4-methyl-N-((tetrahydrofuran-2-yl)methyl) pyrimidin-2-amine], the IC50 is reported as 1.25 µM.

Same assay, conditions: IC50 (μM), HEK cell line stably expressing the receptor; 10 min pre-incubation, nicotine EC80; 10-point curve, duplicate wells
Compound `CCN1CCCCC1CNc1ncc(-c2ccc(F)cc2F)c(C)n1` (stereo not drawn) [Example 10, 5-(2,4-difluorophenyl)-N-((1-ethylpiperidin-2-yl)methyl)-4-methyl-pyrimidin-2-amine] has an IC50 of 0.201 µM. Work on `COc1ccc(-c2cnc(NCC3CCCCN3C)nc2C)c(Cl)c1` (stereo not drawn) [Example 35, 5-(2-chloro-4-methoxyphenyl)-4-methyl-N-((1-methylpiperidin-2-yl)methyl) pyrimidin-2-amine] yielded an IC50 of 0.029 µM.
